# ChEMBL document CHEMBL4665723, “Evaluation of the effect of synthetic compounds derived from azidothymidine on MDA-MB-231 type breast cancer cells” (Bioorg Med Chem Lett, 2020)
# The source made the active and inactive calls. No cut-off for these calls is given here.
# Key:
# 5637 = assay: Antiproliferative activity against human 5637 cells assessed as inhibition of cell growth incubated for 24 hrs by MTT assay; type: functional, cell-based; settings: Homo sapiens, 5637, 24 h
# MDA-MB-231 [1] = assay: Induction of apoptosis in human MDA-MB-231 cells assessed as late apoptotic cells at 12.5 uM incubated for 48 hrs by AnnexinV and 7AAD staining based flow cytometric analysis; type: functional, cell-based
# MDA-MB-231 [2] = assay: Induction of cell cycle arrest in human MDA-MB-231 cells assessed as accumulation in G2/M phase at 12.5 uM incubated for 48 hrs by PI staining based flow cytometric analysis (reference value: 19.7%); type: functional
# MDA-MB-231 [3] = assay: Induction of cell cycle arrest in human MDA-MB-231 cells assessed as accumulation in G0/G1 phase at 12.5 uM incubated for 48 hrs by PI staining based flow cytometric analysis (reference value: 51.75%); type: functional
# MDA-MB-231 [4] = assay: Induction of cell cycle arrest in human MDA-MB-231 cells assessed as accumulation in S phase at 12.5 uM incubated for 48 hrs by PI staining based flow cytometric analysis (reference value: 19.35%); type: functional
# MDA-MB-231 [5] = assay: Antiproliferative activity against human MDA-MB-231 cells assessed as inhibition of cell growth at >25 uM incubated for 24 hrs by MTT assay relative to control; type: functional; settings: dose microM >25
# MDA-MB-231 [6] = assay: Antiproliferative activity against human MDA-MB-231 cells incubated for 24 hrs by MTT assay; type: functional, cell-based; settings: MDA-MB-231, 24 h
# MDA-MB-231 [7] = assay: Antiproliferative activity against human MDA-MB-231 cells at >12.5 uM incubated for 48 hrs by MTT assay; type: functional, cell-based; settings: dose microM >12.5, time 48.0 hrs
# MDA-MB-231 [8] = assay: Induction of apoptosis in human MDA-MB-231 cells assessed as early apoptotic cells at 12.5 uM incubated for 48 hrs by AnnexinV and 7AAD staining based flow cytometric analysis; type: functional, cell-based
# MDA-MB-231 [9] = assay: Antiproliferative activity against human MDA-MB-231 cells incubated for 48 hrs by MTT assay; type: functional, cell-based; settings: MDA-MB-231, 48 h
# MDA-MB-231 [10] = assay: Antiproliferative activity against human MDA-MB-231 cells at 6.25 to 100 uM incubated for 24 to 48 hrs by MTT assay; type: functional, cell-based; settings: dose microM 6.25-100, time hrs 24-48
# MCF7 = assay: Antiproliferative activity against human MCF7 cells assessed as inhibition of cell growth; type: functional, cell-based
SMILES,IC50 5637,Activity (MDA-MB-231 [1]),Activity (MDA-MB-231 [2]),Activity (MDA-MB-231 [3]),Activity (MDA-MB-231 [4]),inhibition (INH) (MDA-MB-231 [5]),IC50 (MDA-MB-231 [6]),Activity (MDA-MB-231 [7]),Activity (MDA-MB-231 [8]),IC50 (MDA-MB-231 [9]),Activity (MDA-MB-231 [10]),IC50 (MCF7)
Cc1cn([C@H]2C[C@H](n3cc(CO)nn3)[C@@H](C[Te]c3ccccc3)O2)c(=O)[nH]c1=O,8.09 µM,inactive,16.9%,40.55%,27.3%,50%,24.9 µM,Active,inactive,11.8 µM,,
Cc1cn([C@H]2C[C@H](N=[N+]=[N-])[C@@H](CO)O2)c(=O)[nH]c1=O,,,,,,,,,,,inactive,
Cc1cn([C@H]2C[C@H](n3cc(CCCO)nn3)[C@@H](C[Te]c3ccccc3)O2)c(=O)[nH]c1=O,1.99 µM,inactive,19.95%,44.9%,28.2%,50%,21.6 µM,Active,inactive,9.62 µM,,
CNCCC(Oc1ccc(C(F)(F)F)cc1)c1ccccc1 (configuration not stated) [FLUOXETINE],,,,,,,,,,,,0.01 µM
